What was measured:
annual bluegrass [1] = assay: Test E annual bluegrass; type: in vivo, Poa annua; details: Postemergence
In short: (§1)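 Postemergence: spray at 1–4 leaf stage, soil 60:40 sandy loam:potting mix; solvent + surfactant formulation; greenhouse 21–28 d; visual injury vs untreated controls.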

lambsquarters [2] = assay: Test E lambsquarters; type: in vivo, Chenopodium album; details: Postemergence
Method: (§2) Compounds evaluated in this test were formulated in a non-phytotoxic solvent mixture which included a surfactant and applied to plants that were in the 1- to 4-leaf stage (postemergence application). A mixture of sandy loam soil and greenhouse potting mix in a 60:40 ratio was used for the postemergence test.
(§3) Plantings of these crops and weed species were adjusted to produce plants of appropriate size for the postemergence test. All plant species were grown using normal greenhouse practices. Crop and weed species include annual bluegrass (Poa annua), blackgrass (Alopecurus myosuroides), black nightshade (Solanum nigra), chickweed (Stellaria media), common poppy (Papaver rhoeas), deadnettle (Lamium amplexicaule), downy brome (Bromus tectorum), field violet (Viola arvensis), galium (Galium aparine), green foxtail (Setaria viridis), Italian ryegrass (Lolium multiflorum), jointed goatgrass (Aegilops cylindrica), kochia (Kochia scoparia), lambsquarters (Chenopodium album), littleseed canarygrass (Phalaris minor), rape (Brassica napus), redroot pigweed (Amaranthus retroflexus), Russian thistle (Salsola kali), scentless chamomile (Matricaria inodora), spring barley (Hordeum vulgare), sugar beet (Beta vulgaris), sunflower (Helianthus annuus), ivyleaf speedwell (Veronica hederaefolia), spring wheat (Triticum aestivum), winter wheat (Triticum aestivum), wild buckwheat (Polygonum convolvulus), wild mustard (Sinapis arvensis), wild oat (Avena fatua), windgrass (Apera spica-venti) and winter barley (Hordeum vulgare).
(§4) Treated plants and untreated controls were maintained in a greenhouse for approximately 21 to 28 days, after which all treated plants were compared to untreated controls and visually evaluated. […] A dash response (-) means no test result.

rape = assay: Test E rape; type: in vivo, Brassica napus; details: Postemergence
In short: as §1

wild buckwheat = assay: Test E wild buckwheat; type: in vivo, Polygonum convolvulus; details: Postemergence
Method: as §2, §3, §4

wild mustard = assay: Test E wild mustard; type: in vivo, Sinapis arvensis; details: Postemergence
In short: as §1

annual bluegrass [3] = assay: Test E annual bluegrass; type: in vivo, Poa annua; details: Preemergence
black nightshade = assay: Test E black nightshade; type: in vivo, Solanum nigra; details: Preemergence
downy brome = assay: Test E downy brome; type: in vivo, Bromus tectorum; details: Preemergence
lambsquarters [4] = assay: Test E lambsquarters; type: in vivo, Chenopodium album; details: Preemergence
Russian thistle = assay: Test E Russian thistle; type: in vivo, Salsola kali; details: Preemergence
spring barley = assay: Test E spring barley; type: in vivo, Hordeum vulgare; details: Preemergence
windgrass = assay: Test E windgrass; type: in vivo, Apera spica-venti; details: Preemergence
cocklebur = assay: Test C postemergence cocklebur; type: in vivo, Xanthium strumarium; details: 0 to 100 scale, 0 no effect, 100 complete control
Method: (§5) Compounds evaluated in this test were formulated in a non-phytotoxic solvent mixture which included a surfactant and applied to plants that were grown for various periods of time before treatment (postemergence application). A mixture of sandy loam soil and greenhouse potting mix in a 60:40 ratio was used for the postemergence test.
(§6) Plantings of these crops and weed species were adjusted to produce plants of appropriate size for the postemergence test. All plant species were grown using normal greenhouse practices. Crop and weed species include arrowleaf sida (Sida rhombifolia), barnyardgrass (Echinochloa crus-galli), cocklebur (Xanthium strumarium), common ragweed (Ambrosia elatior), corn (Zea mays), cotton (Gossypium hirsutum), eastern black nightshade (Solanum ptycanthum), fall panicum (Panicum dichotomiflorum), field bindweed (Convolvulus arvensis), giant foxtail (Setaria faberii), hairy beggarticks (Bidens pilosa), ivyleaf morningglory (Ipomoea hederacea), johnsongrass (Sorghum halepense), ladysthumb smartweed (Polygonum persicaria), lambsquarters (Chenopodium album), large crabgrass (Digitaria sanguinalis), purple nutsedge (Cyperus rotundus), redroot pigweed (Amaranthus retroflexus), soybean (Glycine max), surinam grass (Brachiaria decumbens), velvetleaf (Abutilon theophrasti) and wild poinsettia (Euphorbia heterophylla).
(§7) Treated plants and untreated controls were maintained in a greenhouse for approximately 14, to 21 days, after which all treated plants were compared to untreated controls and visually evaluated. Plant response ratings, summarized in Table C, were based upon a 0 to 100 scale where 0 was no effect and 100 was complete control. A dash response (−) means no test result.

eastern black nightshade = assay: Test C postemergence eastern black nightshade; type: in vivo, Solanum ptycanthum; details: 0 to 100 scale, 0 no effect, 100 complete control
In short: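 Foliar postemergence treatment of greenhouse plants grown in 60:40 sandy loam:potting mix; compounds delivered in non-phytotoxic solvent with surfactant. Evaluation is visual, 0–100, after ~14–21 d.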

hairy beggarticks = assay: Test C postemergence hairy beggarticks; type: in vivo, Bidens pilosa; details: 0 to 100 scale, 0 no effect, 100 complete control
Method: as §5, §6, §7

lambsquarters [5] = assay: Test C postemergence lambsquarters; type: in vivo, Chenopodium album; details: 0 to 100 scale, 0 no effect, 100 complete control
Method: as §5, §6, §7

redroot pigweed = assay: Test C postemergence redroot pigweed; type: in vivo, Amaranthus retroflexus; details: 0 to 100 scale, 0 no effect, 100 complete control
Method: as §5, §6, §7

[6] = Rate 250 g/ha, 0 to 100 scale (0 no effect, 100 complete control)
[7] = Rate 500 g/ha, 0 to 100 scale, 0 no effect, 100 complete control
[8] = Rate 125 g/ha, 0 to 100 scale (0 no effect, 100 complete control)
[9] = Rate 500 g/ha, 0 to 100 scale where 0 is no effect and 100 is complete control
[10] = Rate 250 g/ha, 0 to 100 scale where 0 is no effect and 100 is complete control

SMILES: CC(C)N(C(=O)n1oc(=O)n(C(C)C)c1=O)c1ccc(Cl)cc1 [Compound 114]
- Plant response rating, Annual bluegras (annual bluegrass [1]; Rate 125 g/ha, 0 to 100 scale): 0
- Plant response rating, Annual bluegras (annual bluegrass [1]; [6]): 30
- Plant response rating, Annual bluegras (annual bluegrass [1]; [7]): 60
- Plant response rating, Lambsquarters (lambsquarters [2]; Rate 125 g/ha, 0 to 100 scale): 30
- Plant response rating, Lambsquarters (lambsquarters [2]; [6]): 30
- Plant response rating, Lambsquarters (lambsquarters [2]; [7]): 40
- Plant response rating, Rape (rape; Rate 125 g/ha, 0 to 100 scale): 55
- Plant response rating, Rape (rape; [6]): 50
- Plant response rating, Rape (rape; [7]): 55
- Plant response rating, Wild buckwheat (wild buckwheat; Rate 125 g/ha, 0 to 100 scale): 20
- Plant response rating, Wild buckwheat (wild buckwheat; [6]): 30
- Plant response rating, Wild buckwheat (wild buckwheat; [7]): 30
- Plant response rating, Wild mustard (wild mustard; Rate 125 g/ha, 0 to 100 scale): 75
- Plant response rating, Wild mustard (wild mustard; [6]): 50
- Plant response rating, Wild mustard (wild mustard; [7]): 70
- Plant response rating, Annual bluegras (annual bluegrass [3]; [8]): 50
- Plant response rating, Annual bluegras (annual bluegrass [3]; Rate 250 g/ha, 0 to 100 scale): 50
- Plant response rating, Annual bluegras (annual bluegrass [3]; [9]): 60
- Plant response rating, Blk nightshade (black nightshade; [8]): 20
- Plant response rating, Blk nightshade (black nightshade; Rate 250 g/ha, 0 to 100 scale): 60
- Plant response rating, Blk nightshade (black nightshade; [9]): 90
- Plant response rating, Downy brome (downy brome; [8]): 10
- Plant response rating, Downy brome (downy brome; Rate 250 g/ha, 0 to 100 scale): 60
- Plant response rating, Downy brome (downy brome; [9]): 50
- Plant response rating, Lambsquarters (lambsquarters [4]; [8]): 50
- Plant response rating, Lambsquarters (lambsquarters [4]; Rate 250 g/ha, 0 to 100 scale): 100
- Plant response rating, Lambsquarters (lambsquarters [4]; [9]): 100
- Plant response rating, Russian thistle (Russian thistle; [8]): 0
- Plant response rating, Russian thistle (Russian thistle; Rate 250 g/ha, 0 to 100 scale): 0
- Plant response rating, Russian thistle (Russian thistle; [9]): 0
- Plant response rating, Spring Barley (spring barley; [8]): 0
- Plant response rating, Spring Barley (spring barley; Rate 250 g/ha, 0 to 100 scale): 0
- Plant response rating, Spring Barley (spring barley; [9]): 20
- Plant response rating, Windgrass (windgrass; [8]): 100
- Plant response rating, Windgrass (windgrass; [9]): 100

SMILES: CC(C)N(C(=O)n1oc(=O)n(C(C)C)c1=O)c1ccc(F)cc1 [Compound 131]
- Plant response rating, Cocklebur (cocklebur; Rate 140 g/ha): 0
- Plant response rating, Cocklebur (cocklebur; Rate 280 g/ha): 0
- Plant response rating, Cocklebur (cocklebur; Rate 560 g/ha): 0
- Plant response rating, Cocklebur (cocklebur; Rate 1120 g/ha): 10
- Plant response rating E. blacknightsh (eastern black nightshade; Rate 140 g/ha): 0
- Plant response rating E. blacknightsh (eastern black nightshade; Rate 280 g/ha): 10
- Plant response rating E. blacknightsh (eastern black nightshade; Rate 560 g/ha): 50
- Plant response rating E. blacknightsh (eastern black nightshade; Rate 1120 g/ha): 80
- Plant response rating H. beggarticks (hairy beggarticks; Rate 140 g/ha): 0
- Plant response rating H. beggarticks (hairy beggarticks; Rate 560 g/ha): 40
- Plant response rating H. beggarticks (hairy beggarticks; Rate 1120 g/ha): 70
- Plant response rating, Lambsquarters (lambsquarters [5]; Rate 140 g/ha): 0
- Plant response rating, Lambsquarters (lambsquarters [5]; Rate 280 g/ha): 0
- Plant response rating, Lambsquarters (lambsquarters [5]; Rate 1120 g/ha): 0
- Plant response rating, Redroot pigweed (redroot pigweed; Rate 140 g/ha): 10
- Plant response rating, Redroot pigweed (redroot pigweed; Rate 280 g/ha): 10
- Plant response rating, Redroot pigweed (redroot pigweed; Rate 560 g/ha): 20
- Plant response rating, Redroot pigweed (redroot pigweed; Rate 1120 g/ha): 30
- Plant response rating, Annual bluegras (annual bluegrass [1]; Rate 62 g/ha, 0 to 100 scale): 55
- Plant response rating, Annual bluegras (annual bluegrass [1]; Rate 125 g/ha, 0 to 100 scale): 40
- Plant response rating, Annual bluegras (annual bluegrass [1]; [7]): 70
- Annual bluegras plant response rating (annual bluegrass [1]; [10]): 40
- Plant response rating, Lambsquarters (lambsquarters [2]; Rate 62 g/ha, 0 to 100 scale): 0
- Plant response rating, Lambsquarters (lambsquarters [2]; Rate 125 g/ha, 0 to 100 scale): 0
- Plant response rating, Lambsquarters (lambsquarters [2]; [7]): 0
- Lambsquarters plant response rating (lambsquarters [2]; [10]): 0
- Plant response rating, Rape (rape; Rate 62 g/ha, 0 to 100 scale): 10
- Plant response rating, Rape (rape; Rate 125 g/ha, 0 to 100 scale): 0
- Plant response rating, Rape (rape; [7]): 0
- Rape plant response rating (rape; [10]): 0
- Plant response rating, Wild buckwheat (wild buckwheat; Rate 62 g/ha, 0 to 100 scale): 50
- Plant response rating, Wild buckwheat (wild buckwheat; Rate 125 g/ha, 0 to 100 scale): 0
- Plant response rating, Wild buckwheat (wild buckwheat; [7]): 0
- Wild buckwheat plant response rating (wild buckwheat; [10]): 0
- Plant response rating, Wild mustard (wild mustard; Rate 62 g/ha, 0 to 100 scale): 30
- Plant response rating, Wild mustard (wild mustard; Rate 125 g/ha, 0 to 100 scale): 0
- Plant response rating, Wild mustard (wild mustard; [7]): 30
- Wild mustard plant response rating (wild mustard; [10]): 0
- Plant response rating, Annual bluegras (annual bluegrass [3]; [8]): 70
- Annual bluegras plant response rating (0 to 100 scale) (annual bluegrass [3]; Rate 250 g/ha): 80
- Plant response rating, Annual bluegras (annual bluegrass [3]; [9]): 100
- Plant response rating, Blk nightshade (black nightshade; [8]): 70
- Blk nightshade plant response rating (0 to 100 scale) (black nightshade; Rate 250 g/ha): 85
- Plant response rating, Blk nightshade (black nightshade; [9]): 90
- Plant response rating, Downy brome (downy brome; [8]): 85
- Downy brome plant response rating (0 to 100 scale) (downy brome; Rate 250 g/ha): 80
- Plant response rating, Downy brome (downy brome; [9]): 100
- Plant response rating, Lambsquarters (lambsquarters [4]; [8]): 100
- Lambsquarters plant response rating (0 to 100 scale) (lambsquarters [4]; Rate 250 g/ha): 100
- Plant response rating, Lambsquarters (lambsquarters [4]; [9]): 100
- Plant response rating, Russian thistle (Russian thistle; [8]): 10
- Russian thistle plant response rating (0 to 100 scale) (Russian thistle; Rate 250 g/ha): 0
- Plant response rating, Russian thistle (Russian thistle; [9]): 0
- Plant response rating, Spring Barley (spring barley; [8]): 20
- Spring Barley plant response rating (0 to 100 scale) (spring barley; Rate 250 g/ha): 70
- Plant response rating, Spring Barley (spring barley; [9]): 85
- Plant response rating, Windgrass (windgrass; [8]): 100
- Windgrass plant response rating (0 to 100 scale) (windgrass; Rate 250 g/ha): 100
- Plant response rating, Windgrass (windgrass; [9]): 100

SMILES: CCn1c(=O)on(C(=O)N(c2ccccc2)C(C)C)c1=O [Compound 117]
- Plant response rating, Cocklebur (cocklebur; Rate 140 g/ha): 0
- Plant response rating, Cocklebur (cocklebur; Rate 280 g/ha): 0
- Plant response rating, Cocklebur (cocklebur; Rate 560 g/ha): 0
- Plant response rating, Cocklebur (cocklebur; Rate 1120 g/ha): 0
- Plant response rating E. blacknightsh (eastern black nightshade; Rate 140 g/ha): 0
- Plant response rating E. blacknightsh (eastern black nightshade; Rate 280 g/ha): 0
- Plant response rating E. blacknightsh (eastern black nightshade; Rate 560 g/ha): 70
- Plant response rating E. blacknightsh (eastern black nightshade; Rate 1120 g/ha): 80
- Plant response rating H. beggarticks (hairy beggarticks; Rate 1120 g/ha): 0
- Plant response rating, Lambsquarters (lambsquarters [5]; Rate 140 g/ha): 0
- Plant response rating, Lambsquarters (lambsquarters [5]; Rate 280 g/ha): 0
- Plant response rating, Lambsquarters (lambsquarters [5]; Rate 560 g/ha): 0
- Plant response rating, Lambsquarters (lambsquarters [5]; Rate 1120 g/ha): 0
- Plant response rating, Redroot pigweed (redroot pigweed; Rate 140 g/ha): 0
- Plant response rating, Redroot pigweed (redroot pigweed; Rate 280 g/ha): 0
- Plant response rating, Redroot pigweed (redroot pigweed; Rate 560 g/ha): 0
- Plant response rating, Redroot pigweed (redroot pigweed; Rate 1120 g/ha): 30
